Active and inactive are the calls of the source. The calls are words filed in the database; no cut-off is given here.
What was measured:
[1] = (§1) Selectivity index, ratio of CC50 to African green monkey Vero cells to IC50 for amastigote stage of Leishmania donovani MHOM/IN/80/Dd8; format: functional
[2] = Cytotoxicity against African green monkey Vero cells assessed as cell viability after 72 hrs by MTT assay; format: cell-based; conditions: chlorocebus sabaeus
Leishmania donovani [3] = test: Antileishmanial activity against amastigote stage of Leishmania donovani MHOM/IN/80/Dd8 infected in mouse J-774A.1 cells after 72 hrs by luciferase reporter gene assay; format: functional, organism-based; conditions: MHOM/IN/80/Dd8, J774.A1, 72 h
Vero = test: as §1; format: functional
[4] = Immunostimulatory activity in Leishmania infected mouse J774A1 cells assessed as upregulation of TNF-alpha level at IC50 measured at 48 hrs by sandwich ELISA; format: functional, cell-based; conditions: J774.A1
[5] = Immunostimulatory activity in Leishmania infected mouse J774A1 cells assessed as upregulation of IL-12 level at IC50 measured at 48 hrs by sandwich ELISA; format: functional, cell-based; conditions: J774.A1
J774.A1 [6] = test: Immunostimulatory activity in Leishmania infected mouse J774A1 cells assessed as downregulation of TGF-beta level at IC50 measured at 24 hrs by sandwich ELISA relative to untreated infected cell; format: functional
J774.A1 [7] = test: Immunostimulatory activity in Leishmania infected mouse J774A1 cells assessed as increase in nitric oxide production at IC50 measured at 24 hrs by sandwich ELISA relative to untreated infected cell; format: functional
[8] = Immunostimulatory activity in Leishmania infected mouse J774A1 cells assessed as upregulation of TNF-alpha level at IC50 measured at 24 hrs by sandwich ELISA relative to untreated infected cell; format: functional, cell-based; conditions: J774.A1
[9] = Immunostimulatory activity in Leishmania infected mouse J774A1 cells assessed as upregulation of IL-12 level at IC50 measured at 24 hrs by sandwich ELISA relative to untreated infected cell; format: functional, cell-based; conditions: J774.A1
Syrian golden hamster = test: Toxicity in golden hamster infected with amastigote stage of Leishmania donovani MHOM/IN/80/Dd8 assessed as appearance of abnormal behavior at 50 mg/kg/day, ip measured for 5 days; format: organism-based, Mesocricetus auratus; design: route intraperitoneal; conditions: in vivo, 120 h
Leishmania donovani [10] = test: Antileishmanial activity against amastigote stage of Leishmania donovani MHOM/IN/80/Dd8 infected in golden hamster assessed as inhibition of parasite multiplication in splen at 50 mg/kg/day, ip administered for 5 days measured on day 7 by Giemsa staining relative to control; format: functional; conditions: MHOM/IN/80/Dd8, ip, route intraperitoneal
J774.A1 [11] = test: Immunostimulatory activity in Leishmania infected mouse J774A1 cells assessed as downregulation of IL-10 level at IC50 measured at 48 hrs by sandwich ELISA; format: functional, cell-based
J774.A1 [12] = test: Immunostimulatory activity in Leishmania infected mouse J774A1 cells assessed as downregulation of IL-10 level at IC50 measured at 24 hrs by sandwich ELISA; format: functional, cell-based
J774.A1 [13] = test: Immunostimulatory activity in Leishmania infected mouse J774A1 cells assessed as downregulation of TGF-beta level at IC50 measured at 48 hrs by sandwich ELISA; format: functional, cell-based
J774.A1 [14] = test: Immunostimulatory activity in Leishmania infected mouse J774A1 cells assessed as increase in nitric oxide production at IC50 measured at 48 hrs by sandwich ELISA; format: functional, cell-based

| Compound | IC50 (Leishmania donovani [3]) | Ratio CC50/IC50 [1] | CC50 at 72 h [2] | other results |
| --- | --- | --- | --- | --- |
| c1ccc(Nc2nc(NCCCCOc3nc(Nc4ccccc4)nc(N4CCCc5ccccc54)n3)nc(N3CCCc4ccccc43)n2)cc1 | 8.98 µM | 1.9 | 17.1 µM |  |
| c1ccc(Nc2nc(NCCCCOc3nc(Nc4ccccc4)nc(N4CCc5ccccc5C4)n3)nc(N3CCc4ccccc4C3)n2)cc1 | 7.52 µM | >53.19 | > 400 µM |  |
| Sodium stibogluconate |  |  |  | Ratio CC50/IC50 (Vero): 8.56 |
| CCCCCNc1nc(NCCCCOc2nc(NCCCCC)nc(Nc3ccccc3)n2)nc(Nc2ccccc2)n1 | 6.46 µM | >61.92 | > 400 µM |  |
| CCCNc1nc(NCCCCOc2nc(NCCC)nc(Nc3ccccc3)n2)nc(Nc2ccccc2)n1 | 1.99 µM | 108.58 | 216 µM | Activity [4]: inactive; Activity [5]: inactive; fold change (FC) (J774.A1 [6]): 1.8; fold change (FC) (J774.A1 [7]): 2; fold change (FC) [8]: 2; fold change (FC) [9]: 3; Activity (Syrian golden hamster): Non-toxic; inhibition in vivo at 50 mg/kg/day (Leishmania donovani [10]): 74.4%; Activity (J774.A1 [11]): inactive; Activity (J774.A1 [12]): Active; Activity (J774.A1 [13]): inactive; Activity (J774.A1 [14]): inactive |
| CCCCNc1nc(NCCCCOc2nc(NCCCC)nc(Nc3ccccc3)n2)nc(Nc2ccccc2)n1 | 3.21 µM | >124.61 | > 400 µM |  |
| Clc1nc(NCCCCCOc2nc(Cl)nc(Nc3ccccc3)n2)nc(Nc2ccccc2)n1 | 8.98 µM | 1.9 | 17.1 µM |  |
| CCCCCCCCCCCCCCCCOP(=O)([O-])OCC[N+](C)(C)C [MILTEFOSINE] | 8.1 µM | 6.56 |  |  |
| CCCNc1nc(Nc2ccccc2)nc(OCCCCNc2nc(Nc3ccccc3)nc(NC3CC3)n2)n1 | 2.65 µM | >150.94 | > 400 µM |  |
| c1ccc(Nc2nc(NCCCCCOc3nc(Nc4ccccc4)nc(N4CCOCC4)n3)nc(N3CCOCC3)n2)cc1 | > 40 µM |  |  |  |
| CC(C)(C)Nc1nc(NCCCCOc2nc(Nc3ccccc3)nc(NC(C)(C)C)n2)nc(Nc2ccccc2)n1 | 0.77 µM | 257.48 | 198 µM | Activity (Syrian golden hamster): Non-toxic; inhibition in vivo at 50 mg/kg/day (Leishmania donovani [10]): 62.6% |
| c1ccc(Nc2nc(NCCCCOc3nc(NCCN4CCOCC4)nc(Nc4ccccc4)n3)nc(NCCN3CCOCC3)n2)cc1 | 2.91 µM | 39.61 | 115 µM |  |
| CCCNc1nc(NCCCCOc2nc(Nc3ccccc3)nc(NC3CC3)n2)nc(Nc2ccccc2)n1 | 8.26 µM | 2.2 | 18.2 µM |  |
| CN1CCN(c2nc(NCCCCOc3nc(Nc4ccccc4)nc(N4CCN(C)CC4)n3)nc(Nc3ccccc3)n2)CC1 | 1.33 µM | 15.08 | 20.1 µM |  |

Second part, led by results:

| IC50 (Leishmania donovani [3]) | Compound | Ratio CC50/IC50 [1] | CC50 at 72 h [2] | other results |
| --- | --- | --- | --- | --- |
| 0.86 µM | CCN1CCN(c2nc(NCCCCOc3nc(Nc4ccccc4)nc(N4CCN(CC)CC4)n3)nc(Nc3ccccc3)n2)CC1 | 18.87 | 16.2 µM |  |
| 10.3 µM | Clc1nc(NCCCCOc2nc(Cl)nc(Nc3ccccc3)n2)nc(Nc2ccccc2)n1 | 0.75 | 7.74 µM |  |
| 1.7 µM | c1ccc(Nc2nc(NCCCCOc3nc(NCCCN4CCOCC4)nc(Nc4ccccc4)n3)nc(NCCCN3CCOCC3)n2)cc1 | 8.11 | 13.8 µM |  |
| > 40 µM | CCCNc1nc(NCCCCCOc2nc(NCCC)nc(Nc3ccccc3)n2)nc(Nc2ccccc2)n1 |  |  |  |
| 13.7 µM | N=C(N)c1ccc(OCCCCCOc2ccc(C(=N)N)cc2)cc1 [PENTAMIDINE] | 6.27 | 85.9 µM |  |
| 3.51 µM | CC(C)Nc1nc(NCCCCOc2nc(Nc3ccccc3)nc(NC(C)C)n2)nc(Nc2ccccc2)n1 | >113.96 | > 400 µM |  |
| 3.15 µM | c1ccc(Nc2nc(NCCCCOc3nc(Nc4ccccc4)nc(N4CCOCC4)n3)nc(N3CCOCC3)n2)cc1 | 87.5 | 276 µM |  |
| > 40 µM | c1ccc(Nc2nc(NCCCCOc3nc(Nc4ccccc4)nc(NC4CC4)n3)nc(NC3CC3)n2)cc1 |  |  |  |
